Where two headings read alike, the source gives them in different places.
Columns and labels:
[1] = test system: PKB Ser473 phosphorylation in Rat1-myr-HA-p110 alpha cells; assay: Reverse protein array, PKB Ser473 phosphorylation in Rat1-myr-HA-p110 alpha cells; type: cell-based; conditions: Rattus norvegicus, 0.5 h, 30 minutes compound incubation, read-out: p-PKB/IC50_alpha
[2] = Parallel Artificial Membrane Permeability Assay (PAMPA) at pH 6.8; type: physicochemical
Summary of the method: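 Reported as log Pe, membrane permeability was determined by parallel artificial membrane assay at pH 6.8 per Wohnsland–Faller.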

mTOR = biological target: T1, mTOR (Homo sapiens, UniProt P42345); assay: Biochemical assay for m-TOR by TR-FRET
T1 construct: purchased Invitrogen Corporation (Carlsbad/Calif., USA) PV4753
T1 sequence (P42345 1360-2549 limits assumed): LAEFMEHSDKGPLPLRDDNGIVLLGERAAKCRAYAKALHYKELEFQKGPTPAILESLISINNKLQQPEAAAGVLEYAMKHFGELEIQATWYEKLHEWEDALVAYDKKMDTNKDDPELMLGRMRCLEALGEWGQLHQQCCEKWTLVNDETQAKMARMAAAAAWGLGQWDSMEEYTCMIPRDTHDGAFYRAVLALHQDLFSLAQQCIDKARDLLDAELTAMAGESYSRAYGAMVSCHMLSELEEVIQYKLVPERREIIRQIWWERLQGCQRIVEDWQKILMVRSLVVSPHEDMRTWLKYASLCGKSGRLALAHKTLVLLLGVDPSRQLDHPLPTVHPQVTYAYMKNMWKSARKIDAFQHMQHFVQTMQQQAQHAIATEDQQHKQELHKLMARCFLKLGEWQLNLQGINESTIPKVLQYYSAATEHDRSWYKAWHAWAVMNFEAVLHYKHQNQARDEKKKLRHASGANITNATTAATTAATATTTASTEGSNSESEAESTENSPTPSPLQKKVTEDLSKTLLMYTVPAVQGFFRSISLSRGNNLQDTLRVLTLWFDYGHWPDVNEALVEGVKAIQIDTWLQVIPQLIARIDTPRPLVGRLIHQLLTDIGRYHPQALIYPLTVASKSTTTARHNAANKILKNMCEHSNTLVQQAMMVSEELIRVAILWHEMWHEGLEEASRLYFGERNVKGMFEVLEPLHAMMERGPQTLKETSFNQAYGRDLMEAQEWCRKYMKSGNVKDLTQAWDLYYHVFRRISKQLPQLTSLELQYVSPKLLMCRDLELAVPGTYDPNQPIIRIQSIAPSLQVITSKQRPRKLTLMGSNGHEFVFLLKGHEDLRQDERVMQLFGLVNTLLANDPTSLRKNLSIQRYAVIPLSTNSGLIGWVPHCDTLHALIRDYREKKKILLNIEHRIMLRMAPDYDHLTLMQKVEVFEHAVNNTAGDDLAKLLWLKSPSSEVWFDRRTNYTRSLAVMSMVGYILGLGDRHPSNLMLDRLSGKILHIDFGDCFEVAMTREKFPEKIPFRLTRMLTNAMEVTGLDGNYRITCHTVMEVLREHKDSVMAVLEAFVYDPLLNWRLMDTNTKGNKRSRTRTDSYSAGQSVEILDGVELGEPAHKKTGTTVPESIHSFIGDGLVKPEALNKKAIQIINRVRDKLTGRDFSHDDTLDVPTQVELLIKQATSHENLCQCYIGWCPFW
Summary of the method: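 mTOR (0.5 nM) phosphorylates GFP-4EBP1 (400 nM) with 8 μM ATP at rt in 50 mM HEPES pH 7.5, 10 mM MnCl2, 50 mM NaCl, 1 mM EGTA, 1 mM DTT; compounds 0.003–10 μM final. EDTA stop with Tb-anti-p4EBP1[pT46] antibody (0.5 nM); TR-FRET read after 15 min against no-enzyme and vehicle controls.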

[3] = test system: PKB Ser473 phosphorylation in Rat1-myr-HA-p110 beta cells; assay: Reverse protein array, PKB Ser473 phosphorylation in Rat1-myr-HA-p110 beta cells; type: cell-based; conditions: Rattus norvegicus, 0.5 h, 30 minutes compound incubation, read-out: p-PKB/IC50_beta

SMILES: Cc1nc(F)ccc1-n1c(=O)n(C)c2cnc3ccc(-c4cnc5c(ccn5C)c4)cc3c21 [Example 7.2, 1-(6-Fluoro-2-methyl-pyridin-3-yl)-3-methyl-8-(1-methyl-1H-pyrrolo[2,3-b]pyridin-5-yl)-1,3-dihydro-imidazo[4,5-c]quinolin-2-one]
- IC50 [1]: 12.1 nM
- HT-perm/logPe pH6.8 [2]: −3.7
- IC50 (mTOR; read-out: mTOR/IC50): 17 nM
- IC50 [3]: 29.5 nM

SMILES: Cc1nc(N2CC[C@H](O)C2)ccc1-n1c(=O)n(C)c2cnc3ccc(-c4cncc(OC(C)C)c4)cc3c21 [Example 32.8, 1-[6-((S)-3-Hydroxy-pyrrolidin-1-yl)-2-methyl-pyridin-3-yl]-8-(5-isopropoxy-pyridin-3-yl)-3-methyl-1,3-dihydro-imidazo[4,5-c]quinolin-2-one]
- IC50 [1]: 35.8 nM
- HT-Perm logPe pH6.8 [2]: −3.8
- IC50 (mTOR; read-out: EPK_mTOR/IC50): 42.5 nM
- IC50 [3]: 63.7 nM

SMILES: Cc1ncccc1-n1c(=O)n(C)c2cnc3ccc(-c4cncc(NC(C)C)c4)cc3c21 [Example 2.24, 8-(5-Isopropylamino-pyridin-3-yl)-3-methyl-1-(2-methyl-pyridin-3-yl)-1,3-dihydro-imidazo[4,5-c]quinolin-2-one]
- IC50 [1]: 22.2 nM
- HT-Perm logPe pH6.8 [2]: −4.5
- IC50 (mTOR; read-out: EPK_mTOR/IC50): 29 nM
- IC50 [3]: 16.4 nM

SMILES: CNc1ccc(-c2ccc3ncc4c(c3c2)n(-c2ccc(F)nc2C)c(=O)n4C)cn1 [Example 7.4, 1-(6-Fluoro-2-methyl-pyridin-3-yl)-3-methyl-8-(6-methylamino-pyridin-3-yl)-1,3-dihydro-imidazo[4,5-c]quinolin-2-one]
- IC50 [1]: 7.18 nM
- HT-perm/logPe pH6.8 [2]: −4.3
- IC50 (mTOR; read-out: mTOR/IC50): 8 nM
- IC50 [3]: 8.6 nM

SMILES: COc1ccc(-c2ccc3ncc4c(c3c2)n(-c2cnccc2C)c(=O)n4C)cn1 [Example 4.3, 8-(6-Methoxy-pyridin-3-yl)-3-methyl-1-(4-methyl-pyridin-3-yl)-1,3-dihydro-imidazo[4,5-c]quinolin-2-one]
- IC50 [1]: 203 nM
- HT-perm/logPe pH6.8 [2]: −3.7
- IC50 (mTOR; read-out: mTOR/IC50): 442 nM
- IC50 [3]: 363 nM

SMILES: COc1ccc(-c2ccc3ncc4c(c3c2)n(-c2cccnc2C)c(=O)n4C)cn1 [Example 2.12, 8-(6-Methoxy-pyridin-3-yl)-3-methyl-1-(2-methyl-pyridin-3-yl)-1,3-dihydro-imidazo[4,5-c]quinolin-2-one]
- IC50 [1]: 29.8 nM
- HT-perm/logPe pH6.8 [2]: −3.3
- IC50 (mTOR; read-out: mTOR/IC50): 74 nM
- IC50 [3]: 19.8 nM

SMILES: CCOc1cc(-c2ccc3ncc4c(c3c2)n(-c2ccc(F)nc2C)c(=O)n4C)cnc1COC [Example 7.5, 8-(5-Ethoxy-6-methoxymethyl-pyridin-3-yl)-1-(6-fluoro-2-methyl-pyridin-3-yl)-3-methyl-1,3-dihydro-imidazo[4,5-c]quinolin-2-one]
- IC50 [1]: 31.5 nM
- HT-Perm logPe pH6.8 [2]: −3.7
- IC50 (mTOR; read-out: EPK_mTOR/IC50): 88 nM
- IC50 [3]: 82.1 nM

SMILES: COCc1ncc(-c2ccc3ncc4c(c3c2)n(-c2ccc(N3CCC3)nc2C)c(=O)n4C)cc1OC(C)C [Example 23.2, 1-(6-Azetidin-1-yl-2-methyl-pyridin-3-yl)-8-(5-isopropoxy-6-methoxymethyl-pyridin-3-yl)-3-methyl-1,3-dihydro-imidazo[4,5-c]quinolin-2-one]
- IC50 [1]: 24.8 nM
- HT-Perm logPe pH6.8 [2]: −3.7
- IC50 (mTOR; read-out: EPK_mTOR/IC50): 44 nM
- IC50 [3]: 53.4 nM

SMILES: Cc1nc(N2CCC2)ccc1-n1c(=O)n(C)c2cnc3ccc(-c4cncc(OC(C)C)c4)cc3c21 [Example 23.9, 1-(6-Azetidin-1-yl-2-methyl-pyridin-3-yl)-8-(5-isopropoxy-pyridin-3-yl)-3-methyl-1,3-dihydro-imidazo[4,5-c]quinolin-2-one]
- IC50 [1]: 26.2 nM
- HT-Perm logPe pH6.8 [2]: −3.7
- IC50 (mTOR; read-out: EPK_mTOR/IC50): 37 nM
- IC50 [3]: 136 nM

SMILES: Cc1cccnc1-n1c(=O)n(C)c2cnc3ccc(-c4cnc(N)c(C(F)(F)F)c4)cc3c21 [Example 3.12, 8-(6-Amino-5-trifluoromethyl-pyridin-3-yl)-3-methyl-1-(3-methyl-pyridin-2-yl)-1,3-dihydro-imidazo[4,5-c]quinolin-2-one]
- IC50 [1]: 13.7 nM
- HT-perm/logPe pH6.8 [2]: −4.0
- IC50 (mTOR; read-out: mTOR/IC50): 389 nM
- IC50 [3]: 172 nM

SMILES: COCc1ncc(-c2ccc3ncc4c(c3c2)n(-c2ccc(N3CCC3)nc2C)c(=O)n4C)cc1OC [Example 23.6, 1-(6-Azetidin-1-yl-2-methyl-pyridin-3-yl)-8-(5-methoxy-6-methoxymethyl-pyridin-3-yl)-3-methyl-1,3-dihydro-imidazo[4,5-c]quinolin-2-one]
- IC50 [1]: 37.1 nM
- HT-Perm logPe pH6.8 [2]: −4.2
- IC50 (mTOR; read-out: EPK_mTOR/IC50): 137 nM
- IC50 [3]: 103 nM

SMILES: CNc1ncc(-c2ccc3ncc4c(c3c2)n(-c2ccc(N3CC(F)(F)C3)nc2C)c(=O)n4C)cn1 [Example 24.1, 1-[6-(3,3-Difluoro-azetidin-1-yl)-2-methyl-pyridin-3-yl]-3-methyl-8-(2-methylamino-pyrimidin-5-yl)-1,3-dihydro-imidazo[4,5-c]quinolin-2-one]
- IC50 [1]: 15.3 nM
- HT-Perm logPe pH6.8 [2]: −3.9
- IC50 (mTOR; read-out: EPK_mTOR/IC50): 21 nM
- IC50 [3]: 12.7 nM

SMILES: Cc1nc(F)ccc1-n1c(=O)n(C)c2cnc3ccc(-c4cncc(C(C)(C)O)c4)cc3c21 [Example 7.8, 1-(6-Fluoro-2-methyl-pyridin-3-yl)-8-[5-(1-hydroxy-1-methyl-ethyl)-pyridin-3-yl]-3-methyl-1,3-dihydro-imidazo[4,5-c]quinolin-2-one]
- IC50 [1]: 14.5 nM
- HT-Perm logPe pH6.8 [2]: −5.5
- IC50 (mTOR; read-out: EPK_mTOR/IC50): 86 nM
- IC50 [3]: 68.6 nM

SMILES: COc1cc(-c2ccc3ncc4c(c3c2)n(-c2cccnc2C)c(=O)n4C)cnc1C(OC)OC [Example 2.27, 8-(6-Dimethoxymethyl-5-methoxy-pyridin-3-yl)-3-methyl-1-(2-methyl-pyridin-3-yl)-1,3-dihydro-imidazo[4,5-c]quinolin-2-one]
- IC50 [1]: 100 nM
- HT-Perm logPe pH6.8 [2]: −5.3
- IC50 (mTOR; read-out: EPK_mTOR/IC50): 169 nM
- IC50 [3]: 247 nM

SMILES: CCNc1ncc(-c2ccc3ncc4c(c3c2)n(-c2ccc(N3CC[C@@H](O)C3)nc2C)c(=O)n4C)cc1COCC [Example 34.4, 8-(5-Ethoxymethyl-6-ethylamino-pyridin-3-yl)-1-[6-((R)-3-hydroxy-pyrrolidin-1-yl)-2-methyl-pyridin-3-yl]-3-methyl-1,3-dihydro-imidazo[4,5-c]quinolin-2-one]
- IC50 [1]: 35 nM
- HT-Perm logPe pH6.8 [2]: −4.1
- IC50 (mTOR; read-out: EPK_mTOR/IC50): 214 nM
- IC50 [3]: 27.9 nM

From patent publication US20100311714A1, “1H-IMIDAZO[4,5-c]QUINOLINONE COMPOUNDS” (priority 2009, published 2010)
